Measured values taken from patent US12673947B2 (Cytosinlab Therapeutics Co., Ltd., priority 2020, dated 2026).
Where a name gives a salt, the structure may show the parent alone.

Experiments:
FLT3 = target: T1, FLT3 (Homo sapiens, UniProt P36888); test: FLT3 kinase in vitro inhibitory activity experiment (Caliper mobility shift, conversion rate); format: biochemical; details: IC50 class, read-out: Enzyme activity FLT3
T1 construct: purchased Carna 08-145
T1 sequence (P36888 27-993): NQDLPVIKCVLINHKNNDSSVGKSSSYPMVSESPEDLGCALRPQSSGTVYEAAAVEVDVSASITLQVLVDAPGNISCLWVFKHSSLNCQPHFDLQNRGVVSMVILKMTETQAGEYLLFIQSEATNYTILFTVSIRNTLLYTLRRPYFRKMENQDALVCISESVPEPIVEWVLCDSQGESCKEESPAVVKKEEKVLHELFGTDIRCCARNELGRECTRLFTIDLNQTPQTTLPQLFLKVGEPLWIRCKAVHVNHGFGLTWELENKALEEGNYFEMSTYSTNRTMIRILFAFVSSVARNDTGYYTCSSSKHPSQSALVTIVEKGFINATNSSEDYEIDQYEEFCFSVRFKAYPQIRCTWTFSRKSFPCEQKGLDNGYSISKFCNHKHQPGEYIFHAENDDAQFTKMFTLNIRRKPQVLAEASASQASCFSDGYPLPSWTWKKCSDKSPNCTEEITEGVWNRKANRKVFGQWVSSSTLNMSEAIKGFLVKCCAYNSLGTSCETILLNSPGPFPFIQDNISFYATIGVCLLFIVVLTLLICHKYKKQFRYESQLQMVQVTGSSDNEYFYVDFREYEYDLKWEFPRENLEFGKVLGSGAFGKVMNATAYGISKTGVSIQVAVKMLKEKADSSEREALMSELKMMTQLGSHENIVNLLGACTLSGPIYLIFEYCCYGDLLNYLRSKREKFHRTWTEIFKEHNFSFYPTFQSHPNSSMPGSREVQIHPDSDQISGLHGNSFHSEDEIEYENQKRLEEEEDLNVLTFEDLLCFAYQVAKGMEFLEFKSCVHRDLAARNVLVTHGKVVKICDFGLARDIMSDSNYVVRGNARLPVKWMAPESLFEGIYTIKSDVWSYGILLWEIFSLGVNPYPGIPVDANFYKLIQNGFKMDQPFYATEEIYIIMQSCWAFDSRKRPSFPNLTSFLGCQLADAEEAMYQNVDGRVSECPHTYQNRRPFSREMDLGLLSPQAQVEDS
Protocol: Biological Test Example 1: FLT3 Kinase In Vitro Inhibitory Activity Experiment
Centrifuge (manufacturer: Eppendorf, model: 5430), microplate reader (manufacturer: Perkin Elmer, model: Caliper EZ Reader II), Echo 550 (manufacturer: Labcyte, model: Echo 550)
1. Kinase Reaction Process
• (1) 1×Kinase buffer was prepared. • (2) Preparation of the serial compound dilutions: the initial stock (the concentration of the tested compound was 1 μM) was diluted by 3-fold into 10 concentrations, and was single-well detected. The compounds were series diluted to solutions of 10 different concentration (100-folds final concentration) in 384-well plates. 250 nl of solution was transferred to each well of 384-well plate by Echo550. 100% DMSO (250 nl) was added to negative control wells and positive control wells respectively. • (3) Kinase solution (2.5 times final concentration) was prepared with 1×Kinase buffer. • (4) 10 μL of kinase solution (2.5 times final concentration) was added to compound wells and positive control wells respectively: 1×Kinase buffer (10 μL) was added to the negative control wells. • (5) The solution was centrifuged at 1000 rpm for 30 seconds, shaked and mixed, and incubated at room temperature for 10 minutes. • (6) The mixed solution of ATP and Kinase substrate 2 (25/15 times final concentration) was prepared with 1×Kinase buffer. • (7) 15 μL of mixed solution ATP and Kinase substrate 2 (25/15 times final concentration) was added to initiated the reaction. • (8) 384 well plate was centrifuged at 1000 rpm for 30 seconds, shaked and mixed, then incubated at room temperature for 30 minutes. • (9) Stop solution (30 μL) was added to stop kinase reaction, and the solution was centrifuged at 1000 rpm for 30 seconds, shaked and mixed. • (10) The conversion rate was read with Caliper EZ Reader II. 2. Data Analysis Formula for Calculation
Wherein: Conversion %_sample is the reading of the sample conversion; Conversion %_min: negative control well.

MV4;11 cells = test: MV4;11 in vitro inhibition of proliferation assay (CellTiter-Glo, 72 hours); format: cell-based; details: Homo sapiens, MV4-11, 72 h, IC50 class, read-out: Inhibitory activity of cell proliferation MV4;11
Description: Biological Test Example 2: MV4;11 In Vitro Inhibition of Proliferation Assay
The MV4;11 cell lines were purchased from the cell bank of the Chinese Academy of Sciences, IMDM medium (Gibco, catalog number 12440), fetal bovine serum (Gibco, catalog number 10099141C), penicillin-streptomycin antibiotics (Gibco, catalog number 15140122), DMSO (Sigma, catalog number D2650), Celltiter-Glo kit (CTG) (Promega, catalog number G7573), 384-well clear flat-bottom black cell culture plate (Corning, catalog number 3764), D300e digital dispenser (Tecan, catalog number D300e), SpectraMax i3x microplate reader (MOLECULAR DEVICES, catalog number i3x)
MV4;11 cell was cultivated in IMDM, 10% fetal bovine serum, 1% penicillin-streptomycin antibiotics, and cell density was kept less than 1.0*10E6 cells per ml to ensure that it was always in logarithmic growth phase. Cell viability was greater than 95%.
The compounds to be tested was diluted by 3 times from 10 uM with DMSO to 9 concentrations. 60 nl diluted compound was added to the cell culture plate and three duplicates were set up.
The prepared MV4;11 cell suspension was added to the 384-well plate, and 20 microliters of cell suspension was added per well, i.e., each well contained 2000 MV4;11 cells, of which the final concentration of DMSO was 0.3%. The cell culture plate was placed in 37° C. and incubated in a 5% carbon dioxide incubator for 72 hours.
20 μL of Promega CellTiter-Glo reagent was added to per well, and the plate was incubated at room temperature for 10 minutes when the luminescence signals were stable. SpectraMax i3x microplate reader was used to read signals.
The original data was converted into inhibition rate, and the IC50 value (half inhibition concentration) of the compound was determined by fitting the nonlinear four-parameter curve.

| IC50 (FLT3) [nM] | IC50 (MV4;11 cells) [nM] | Structure (SMILES) |
| --- | --- | --- |
| 10 to 100 | > 500 | CCc1nc2c(N)ncc(-c3cccc(OC)c3)c2nc1NC1CCOCC1 [Compound 3] |
| ≤ 10 | 10 to 100 | CCc1nc2c(N)ncc(-c3ccc(N4CCC(N5CCN(C)CC5)CC4)cc3)c2nc1NC1CCOCC1 [Compound 7] |
| ≤ 10 | 10 to 100 | CCc1nc2c(N)ncc(-c3ccc(N4CCC(N5CCN(C)CC5)CC4)c(OC)c3)c2nc1NC1CCOCC1 [Compound 8, 3-ethyl-8-(3-methoxy-4-(4-(4-methylpiperazin-1-yl)piperidin-1-yl)phenyl)-N2-(tetrahydropyran-4-yl)pyrido[3,4-b]pyrazine-2,5-diamine trihydrochloride] |
| 10 to 100 | > 500 | CCc1nc2c(Cl)ncc(-c3ccc(N4CCC(N5CCNCC5)CC4)c(OC)c3)c2nc1NC1CCOCC1 [Compound 11] |
| ≤ 10 | 10 to 100 | CCc1nc2c(N)ncc(-c3ccc(N4CCC(N5CCN(C)CC5)CC4)c(C)c3)c2nc1NC1CCOCC1 [Compound 13] |
| ≤ 10 | 10 to 100 | CCc1nc2c(N)ncc(-c3ccc(N4CCC(N5CCN(C)CC5)CC4)c(F)c3)c2nc1NC1CCOCC1 [Compound 14] |
| ≤ 10 | 10 to 100 | CCc1nc2c(N)ncc(-c3ccc(N4CCC(N5CCN(C)CC5)CC4)c(C#N)c3)c2nc1NC1CCOCC1 [Compound 15] |
| ≤ 10 | 10 to 100 | CCc1nc2c(N)ncc(-c3ccc(N4CCC(N5CCN(C)CC5)CC4)c(C(F)(F)F)c3)c2nc1NC1CCOCC1 [Compound 16] |
| ≤ 10 | 10 to 100 | CCc1nc2c(N)ncc(-c3ccc(N4CCC(N5CCN(C)CC5)CC4)c(OC(F)(F)F)c3)c2nc1NC1CCOCC1 [Compound 17] |
| 10 to 100 | 100 to 500 | CCc1nc2c(N)ncc(-c3ccc(N4CCC(N5CCN(C)CC5)CC4)nc3)c2nc1NC1CCOCC1 [Compound 21] |
| ≤ 10 | 10 to 100 | CCc1nc2c(N)ncc(-c3ccc(N4CCC(N5CCN(C)CC5)CC4)c(OC(C)C)c3)c2nc1NC1CCOCC1 [Compound 22] |
| ≤ 10 | 10 to 100 | CCc1nc2c(N)ncc(-c3ccc(N4CCC(N5CCN(C)CC5)CC4)c(OCCOC)c3)c2nc1NC1CCOCC1 [Compound 23] |
| 10 to 100 | 100 to 500 | COc1cc(-c2cnc(N)c3nc(C)c(NC4CCOCC4)nc23)ccc1N1CCC(N2CCN(C)CC2)CC1 [Compound 26] |
| ≤ 10 | 10 to 100 | COc1cc(-c2cnc(N)c3nc(C(C)C)c(NC4CCOCC4)nc23)ccc1N1CCC(N2CCN(C)CC2)CC1 [Compound 27] |
| ≤ 10 | 10 to 100 | CCCc1nc2c(N)ncc(-c3ccc(N4CCC(N5CCN(C)CC5)CC4)c(OC)c3)c2nc1NC1CCOCC1 [Compound 28] |
| ≤ 10 | 10 to 100 | CCc1nc2c(N)ncc(-c3ccc(N4CCC5(CCN(C)CC5)CC4)c(C)c3)c2nc1NC1CCOCC1 [Compound 31] |
| ≤ 10 | 10 to 100 | CCc1nc2c(N)ncc(-c3ccc(N4CCC5(CCN(C)CC5)CC4)c(OC)c3)c2nc1NC1CCOCC1 [Compound 32] |

| IC50 (FLT3) [nM] | IC50 (MV4;11 cells) [nM] | Structure (SMILES) |
| --- | --- | --- |
| ≤ 10 | 10 to 100 | CCc1nc2c(N)ncc(-c3ccc(N4CCC5(CC4)CN(C)C5)c(OC)c3)c2nc1NC1CCOCC1 [Compound 33] |
| ≤ 10 | 10 to 100 | CCc1nc2c(N)ncc(-c3ccc(N4CCC(N5CCNCC5)CC4)c(OC)c3)c2nc1NC1CCOCC1 [Compound 35] |
| ≤ 10 | 10 to 100 | CCc1nc2c(N)ncc(-c3ccc(N4CCN(C5CCN(C)CC5)CC4)c(OC)c3)c2nc1NC1CCOCC1 [Compound 36] |
| ≤ 10 | 10 to 100 | CCc1nc2c(N)ncc(-c3ccc(N4CCN(C)CC4)c(OC)c3)c2nc1NC1CCOCC1 [Compound 37] |
| ≤ 10 | 10 to 100 | CCc1nc2c(N)ncc(-c3ccc(N4CCOCC4)c(OC)c3)c2nc1NC1CCOCC1 [Compound 38] |
| ≤ 10 | 10 to 100 | CCc1nc2c(N)ncc(-c3ccc(N4CCC(O)CC4)c(OC)c3)c2nc1NC1CCOCC1 [Compound 39] |
| 10 to 100 | 100 to 500 | CCc1nc2c(N)ncc(-c3cccc(CN4CCC(N5CCN(C)CC5)CC4)c3)c2nc1NC1CCOCC1 [Compound 43, 3-ethyl-8-(3-((4-(4-methylpiperazine-1-yl)piperidine-1-yl)methyl)phenyl)-N2-(tetrahydro-2H-pyran-4-yl)pyrido[3,4-b]pyrazine-2,5-diamine] |
| 10 to 100 | > 500 | CCc1nc2c(N)ncc(-c3ccc(CN4CCC(N5CCN(C)CC5)CC4)c(OC)c3)c2nc1NC1CCOCC1 [Compound 44] |
| ≤ 10 | 10 to 100 | CCc1nc2c(N)ncc(-c3ccc(N4CCC(CN5CCN(C)CC5)CC4)c(OC)c3)c2nc1NC1CCOCC1 [Compound 45, 3-ethyl-8-(3-methoxy-4-(4-((4-methylpiperazine-1-yl)methyl)piperidine-1-yl)phenyl)-N2-(tetrahydro-2H-pyran-4-yl)pyridino[3,4-b]pyrazine-2,5-diamine] |
| ≤ 10 | 10 to 100 | CCc1nc2c(N)ncc(-c3ccc(N4CCC(N5CCN(C)CC5)C4)c(OC)c3)c2nc1NC1CCOCC1 (stereo not drawn) [Compound 46] |
| ≤ 10 | 10 to 100 | CCc1nc2c(N)ncc(-c3ccc(N4CCC(N(C)CCN(C)C)CC4)c(OC)c3)c2nc1NC1CCOCC1 [Compound 48] |
| ≤ 10 | 10 to 100 | CCc1nc2c(N)ncc(-c3cnn(C4CCNCC4)c3)c2nc1NC1CCOCC1 [Compound 58] |
| ≤ 10 | 10 to 100 | CCc1nc2c(N)ncc(-c3ccc(N4CCC(N5CCN(C)CC5)CC4)c(OC)c3)c2nc1N[C@H]1CC[C@H](O)CC1 [Compound 65] |
| ≤ 10 | 10 to 100 | CCc1nc2c(N)ncc(-c3ccc(N4CCC(N5CCN(C)CC5)CC4)c(OC)c3)c2nc1NC1CCN(C)CC1 [Compound 66] |
| ≤ 10 | 10 to 100 | CCc1nc2c(N)ncc(-c3ccc(N4CCC(N5CCN(C)CC5)CC4)c(OC)c3)c2nc1NC1CCC(O)C1 (stereo not drawn) [Compound 67] |
| ≤ 10 | 10 to 100 | CCc1nc2c(N)ncc(-c3ccc(N4CCC(N5CCN(C)CC5)CC4)c(OC)c3)c2nc1NCC(C)(C)O [Compound 68] |
